Experiment [1] concerns Human colon cancer cells WiDr. The experiment in a line: Tumor growth-inhibitory effect, WiDr implanted subcutaneously in nude rats. Type of experiment: in vivo, F344/N Jcl-mu nude rats. Conditions: statement on Table 5. How it is done:
Pharmaceutical Test 4 (Tumor Growth-Inhibitory Effect)
Human colon cancer cells WiDr (gotten from ATCC) were implanted into the subcutaneous area of the back of F344/N Jcl-mu nude rats. Eight days after the implantation, gemcitabine (50 mg/kg, Gemzar injection, Eli-Lilly) was intravenously administered to them; and after 24 hours, a test compound was dissolved in a solvent (5% glucose) and given to them through continuous intravenous injection for 8 hours. The tumor volume (0.5×(major diameter)×(minor diameter)^2) was determined on day 0, 3, 6, 10 and 13. Day 0 means the day on which gemcitabine was administered. The relative tumor volume is a relative value, as calculated on the basis of the tumor volume of 1 on day 0. The tumor growth percentage (% T/C) was obtained according to the following formula:
When the tumor volume change from day 0 in the group subjected to test compound administration is more than 0 (>0): % T/C=[(tumor volume change in the test compounds on day 3, 6, 10, 13)/(tumor volume change in the control on day 3, 6, 10, 13)]×100. When the tumor volume change from day 0 in the group subjected to test compound administration is less than 0 (<0): % T/C=[(tumor volume change in the test compounds on day 3, 6, 10, 13)/(tumor volume […])]×100.

The test system of experiment [2] is Human colon cancer cells (WiDr). Nature of the experiment: Checkpoint escape effect in gemcitabine-treated WiDr cells (phosphorylated histone H3-positive cells). Type of experiment: cell-based. Conditions: gemcitabine 100 nM 24 hours, then test compound with nocodazole 8 hours. An excerpt: Pharmaceutical Text 3 (Method of Determining Drug Potency in Cells (Checkpoint-Removing Effect))
Fetal bovine serum (FBS) was obtained from Morgate; DMEM was from Invitrogen; gemcitabine was from Nippon Eli Lilly; nocodazole and 4′,6-diamidino-2-phenylindole were from Sigma; rabbit anti-phosphorylated histone H3 antibody was from Upstate; and fluorescence-labeled (Alexa Fluor 488) anti-rabbit IgG antibody was from Molecular Probe.
Human colon cancer cells (WiDr) were obtained from American Type Culture Collection (ATCC).
(§1) c) Method of Effect Determination:
The cells were suspended in DMEM containing 10% FBS, and the cell suspension was applied to a poly-D-lysine-coated 96-well plastic plate (bought from Becton Dickinson) in an amount of 2000 cells/100 μL/well, in which the cells were incubated overnight in 5% CO2-95% air at 37° C. Gemcitabine was dissolved in phosphate-buffered saline (PBS), and diluted with DMEM containing 10% FBS, and then this was applied to the plate on which the cells had been previously sowed, in an amount of 50 μL/well in such a manner that the final concentration of gemcitabine could be 100 nM. Then, the cells were incubated for 24 hours at 37° C. in 5% CO2-95% air. The test compound was stepwise diluted with dimethylsulfoxide, then diluted with 1200 nM nocodazole-containing DMEM containing 10% FBS, and applied to the plate on which the gemcitabine-treated cells had been sowed, in an amount of 50 μL/well. […] Next, this was washed with PBS, and a solution containing 4′,6-diamidino-2-phenylindole that had been diluted with 1% BSA/PBS to have a concentration 10 μg/mL and a fluorescence-labeled (Alexa Fluor 488) anti-rabbit IgG antibody that had been diluted 250-fold was added to it in an amount 50 μL/well, and reacted in a dark place at room temperature for 60 minutes. Finally, this was washed with PBS, and its fluorescence intensity was determined to calculate the ratio of the phosphorylated histone H3-positive cells (cells that had been in a cell division cycle through removal of checkpoint). […]

Experiment [3] has as its system Cdc2 (Cdk1) tyrosine 15 phosphorylation in NCI-H1299 cells. The experiment in a line: Cdc2 (Cdk1) tyrosine 15-phosphorylation-inhibitory effect in camptothecin-treated NCI-H1299 cells (ELISA). The note with it: Homo sapiens, camptothecin 200 nM 16 hours, then test compound with nocodazole 8 hours, read-out: Cdc2-Y15 Phosphorylation-Inhibitory Effect (H1299, + camptothecin) (EC50). Type of experiment: cell-based.
Source text: Pharmaceutical Text 2 (Method of Determining Drug Potency in Cells (Cdc2 (Cdk1) Tyrosine 15-Phosphorylation-Inhibitory Effect))
Fetal bovine serum (FBS) was obtained from Morgate; media RPMI1640 and DMEM were from Invitrogen; camptothecin was from Sigma; gemcitabine was from Nippon Eli Lilly; nocodazole and protease inhibitor cocktail were from Sigma; rabbit anti-Cdc2 antibody and mouse anti-Cdc2 antibody were from Santa Cruz Biotechnology; rabbit anti-tyrosine 15-phosphorylated Cdc2 antibody and horseradish peroxidase-labeled anti-mouse IgG antibody were from Cell Signaling Technology; sure blue reserve TMB peroxidase substrate was from Kirkegaard and Perry Laboratories.
Human non-small cell lung cancer cells (NCI-H1299) and human colon cancer cells (WiDr) were obtained from American Type Culture Collection (ATCC).
as §1
In the method of using NCI-H1299 cells, the cells were suspended in RPMI1640 containing 10% FBS, and the cell suspension was applied to a 96-well Nunclondelta-processed plastic plate (bought from Nunc), in an amount of 2000 cells/100 μL/well, in which the cells were incubated overnight in 5% CO2-95% air at 37° C. Camptothecin was dissolved in dimethylsulfoxide (DMSO), and diluted with RPMI1640 containing 10% FBS, and then this was applied to the plate on which the cells had been previously sowed, in an amount of 50 μL/well in such a manner that the final concentration of camptothecin could be 200 nM. Then, the cells were incubated for 16 hours at 37° C. in 5% CO2-95% air. The test compound was stepwise diluted with DMSO, then diluted with 4000 nM nocodazole-containing RPMI1640 containing 10% FBS, and applied to the plate on which the camptothecin-treated cells had been sowed, in an amount of 50 μL/well. The cells were incubated for 8 hours at 37° C. in 5% CO2-95% air, then the medium was removed, and a cytolytic buffer was added to the plate in an amount of 100 μL/well, shaken at 4° C. for 2 hours, then frozen at −80° C., and melted to give a cell solution. Cdc2 and tyrosine 15-phosphorylated Cdc2 in the cell solution were determined through enzyme-linked immunosorbent assay (ELISA), and the ratio of tyrosine 15-phosphorylated Cdc2 to Cdc2 was calculated to obtain the 50% phosphorylation-inhibitory concentration of the test compound to the cells (EC50, nM). The cytolytic buffer used herein is an aqueous solution containing 20 mM Hepes (pH 7.5), 150 mM sodium chloride, 1 mM disodium ethylenediaminetetraacetate, 0.1% polyoxyethylene (10) octylphenyl ether, 1% protease inhibitor cocktail, 1 mM dithiothreitol, 2 mM sodium orthovanadate, 10 mM sodium fluoride and 10 mM glycerol diphosphate. Cdc2 was determined through ELISA as follows: A rabbit anti-Cdc2 antibody solution, which had been diluted 200-fold with 50 mM carbonate-bicarbonate buffer (pH 9.6), was applied to a 96-well maxisorpimmuno plate (bought from Nunc), in an amount of 50 μL/well, and statically kept overnight at 4° C. so as to fix the antibody on the plate. Next, this was washed three times with phosphate-buffered saline (PBS), and 5% bovine serum albumin-containing PBS (5% BSA/PBS) was added thereto in an amount of 300 μL/well, and statically kept at room temperature for 2 hours, and then again washed three times with PBS. A mouse anti-Cdc2 antibody solution that had been diluted 100-fold with 0.05% polyoxyethylene sorbitan monolaurate and 1% BSA-containing Tris-HCl-buffered saline (1% BSA/TBS-T) was added to it in an amount of 50 μL/well, and the cell solution was added thereto in an amount of 5 μL/well and statically kept overnight at 4° C. Next, this was washed three times with 0.05% polyoxyethylene sorbitan monolaurate and 0.1% BSA-containing Tris-HCl-buffered saline (0.1% BSA/TBS-T), and then a horseradish peroxidase-labeled anti-mouse IgG antibody solution that had been diluted 2000-fold with 1% BSA/TBS-T was added thereto in an amount of 70 μL/well, and statically kept at room temperature for 3 hours. […]
In general terms: ELISA stands for enzyme-linked immunosorbent assay.

pEC50: −log10 of the molar value.

For `Nc1ccn([C@@H]2O[C@H](CO)[C@@H](O)C2(F)F)c(=O)n1` [Gemcitabine, gemcitabine], the “tumor growth percentage (in words)” value in experiment [1] is “reduced the tumor growth percentage”. The term pEC50 denotes the negative decadic logarithm of the EC50, by convention in mol/L. Regarding `CC(C)n1c(=O)c2cnc(Nc3ccc(C4CCN(C)CC4)cc3)nc2n1-c1cccc(C(C)(C)O)n1` [Example 147, 1-[6-(1-hydroxy-1-methylethyl)pyridin-2-yl]-2-isopropyl-6-{[4-(1-methylpiperidin-4-yl)phenyl]amino}-1,2-dihydro-3H-pyrazolo[3,4-d]pyrimidin-3-one], the values for the negative-log EC50 (pEC50) in experiment [2] and in experiment [3] were 6.96 and 7.00, respectively.
